Experimental data published in article PMC4882559, “Novel Azetidine-Containing TZT-1027 Analogues as Antitumor Agents” (Marine Drugs, 2016).
Values belong to the compound of their own block, whether it stands above or below them.

Tests used:
[1] = test system: A549 human lung carcinoma cell lines; test: Cancer cell proliferation inhibition (MTT assay), A549; type: cell-based
Procedure: (§1) The following cell lines were used for the screening stage, obtained from American Type Culture Collection (ATCC, Manassas, VA, USA); HCT116 human colon cancer cells and A549 human lung carcinoma cell lines were cultured in RPMI 1640 medium supplemented with 10% FBS. Cell cultures were maintained in a humidified atmosphere of 5% CO2 at 37 °C. Cells were seeded at 2000 cells per well in 96-well plates in a volume of 200 μL per well. The test compounds were dissolved in DMSO and diluted with culture medium to different concentrations. After seeding for 24 h, the medium was removed, and […] of the test compound solution was added in duplicates and incubation continued for 72 h at 37 °C in a humidified atmosphere containing 5% CO2. Control cells were treated with vehicle alone. During the last 4 h of incubation, the cells were exposed to tetrazolium dye (MTT) solution (5 mg/mL, […] per well). The generated formazan crystals were dissolved in […] of dimethyl sulfoxide (DMSO), and the absorbance was read spectrophotometrically at 570 nm using an enzyme-linked immunosorbent assay plate reader. The data was calculated using Graph Pad Prism version 5.0 (GraphPad Softwrae, La Jolla, CA, USA). The IC50s were fitted using a non-linear regression model with a sigmoidal dose response.

[2] = test system: HCT116 human colon cancer cells; test: Cancer cell proliferation inhibition (MTT assay), HCT116; type: cell-based; conditions: Homo sapiens, HCT-116, 72 h incubation, mean ± SD of at least three independent experiments
Procedure: as §1

[3] = Liver microsomes metabolic stability, rat
[4] = Liver microsomes metabolic stability, human
[5] = Liver microsomes metabolic stability, mouse
Human A549 xenograft = test: In vivo efficacy study, A549 xenograft model; parameters: species or system BALB/c athymic mice; conditions: 2 mg/kg iv once a day; for Tumor volume: n = 6, mean (SD on next line); for Relative tumor volume: RTV = Vt/V0, n = 6, mean ± SD
Excerpt: Pathogen-free, 4–6 week-old, female BALB/c athymic mice (Shanghai SCXK Laboratory Animal Technology Co. Ltd., Shanghai, China) were housed under sterile conditions. Human A549 xenograft was established in the right flanks of athymic mice according to the protocol of the National Cancer Institute. When the tumor reached a volume of 100 mm^3, the mice were randomly assigned into control (n = 6 per group) and treatment groups (n = 6 per group). Control group were given lactate buffer, and treatment groups were iv administered with tested compounds. The size of tumor was measured individually on the indicated days. Tumor volume (V) was calculated as V = (length × width^2)/2. The individual relative tumor volume (RTV) was calculated as follows: RTV = Vt/V0, where Vt represented the last tumor size measurement and V0 represented the pre-dosing tumor size measurement. The animal experimental protocols were approved by the Animal Ethics Committee of School of Pharmacy, Fudan University and the mice were treated in accordance with international animal ethics guidelines.

[6] = dose of 4 mg/kg; cited from earlier work
Procedure: Further in vivo antitumor activities of 1a was evaluated in A549 xenograft models in mice via tail vein intravenous injection for 22 days. […] Considering of that, the maximum dose of 1a was chosen as 5 mg/kg. […] However, compound 1a could not achieve effective inhibition at all the dose levels (Figure 3b). TZT-1027 (2 mg/kg/day) inhibited tumor growth by 61% over the 22-day administration schedule, howe ... || In summary, we described the design and synthesis of nine TZT-1027 analogues based on the conformation restriction strategy. 3-Aryl-zetidines were used to replace the phenylethyl group at C-terminus. Two human cancer cell lines (A549, HCT116) were used to evaluate the potency of the synthesized compounds. […] Compound 1a could not achieve effective inhibition in A549 xenograft models at different dose levels.

IC50 ([1]; Homo sapiens, A549, MTT assay, 72 h incubation, mean ± SD of at least three independent experiments): 23.5 ± 9.5 nM
IC50 [2]: 0.3 ± 0.1 nM
SMILES: CC(=O)O[C@@]12CO[C@@H]1C[C@H](O)[C@@]1(C)C(=O)[C@H](O)C3=C(C)[C@@H](OC(=O)[C@H](O)[C@@H](NC(=O)OC(C)(C)C)c4ccccc4)C[C@@](O)([C@@H](OC(=O)c4ccccc4)[C@H]21)C3(C)C [Docetaxel, reference compound]

Clint ([3]; Rat, apparent intrinsic clearance, 1 μM): 159.00 mL/min/kg
half-life at 1 μM ([3]; rat, liver microsomes): 15.6 min
Clint ([4]; Human, apparent intrinsic clearance, 1 μM): 39.63 mL/min/kg
half-life at 1 μM ([4]; human, liver microsomes): 43.9 min
Clint ([5]; Mouse, apparent intrinsic clearance, 1 μM): 402.92 mL/min/kg
half-life at 1 μM ([5]; mouse, liver microsomes): 13.5 min
SMILES: O=C(c1ccc(F)cc1)C1CCN(CCn2c(=O)[nH]c3ccccc3c2=O)CC1 [Ketanserin, ketanserin, reference compound]

SMILES: CC[C@H](C)[C@@H]([C@@H](CC(=O)N1CCC[C@H]1[C@H](OC)[C@@H](C)C(=O)N1CC(c2ccccc2C(C)C)C1)OC)N(C)C(=O)[C@@H](NC(=O)[C@@H](C(C)C)N(C)C)C(C)C [1d, (S)-2-((R)-2-(Dimethylamino)-3-methylbutanamido)-N-((3R,4S,5S)-1-((S)-2-((1R,2R)-3-(3-(2-isopropylphenyl)azetidin-1-yl)-1-methoxy-2-methyl-3-oxopropyl)pyrrolidin-1-yl)-3-methoxy-5-methyl-1-oxoheptan-4-yl)-N,3-dimethylbutanamide]
loss of potency against A549 cell lines ([1]; substituted phenyl analogues compared with 1a): about 60 fold

SMILES: CC[C@H](C)[C@@H]([C@@H](CC(=O)N1CCC[C@H]1[C@H](OC)[C@@H](C)C(=O)NCCc1ccccc1)OC)N(C)C(=O)[C@@H](NC(=O)[C@H](C(C)C)N(C)C)C(C)C [TZT-1027]
Tumor volume (Human A549 xenograft; day 1): 147.31 mm3
Tumor volume (Human A549 xenograft; day 4): 182.59 mm3
Relative tumor volume (Human A549 xenograft; day 7): 1.48 ± 0.64
Tumor volume (Human A549 xenograft; day 7): 196.64 mm3
Relative tumor volume (Human A549 xenograft; day 10): 1.73 ± 0.78
Tumor volume (Human A549 xenograft; day 10): 232.81 mm3
Relative tumor volume (Human A549 xenograft; day 13): 2.09 ± 0.9
Tumor volume (Human A549 xenograft; day 13): 275.81 mm3
Relative tumor volume (Human A549 xenograft; day 16): 2.3 ± 0.9
Tumor volume (Human A549 xenograft; day 16): 301.7 mm3
Relative tumor volume (Human A549 xenograft; day 19): 2.6 ± 1.33
Tumor volume (Human A549 xenograft; day 19): 346.59 mm3
Relative tumor volume (Human A549 xenograft; day 22): 2.66 ± 1.11
Tumor volume (Human A549 xenograft; day 22): 363.71 mm3
toxicity of a dose [6]: seemed to be toxic
